Measured values published in patent US12491170B2, “Stable treprostinil prodrugs” (United Therapeutics Corporation, priority 2020, dated 2025).
Like-named read-outs stand apart in the source and are kept apart here.

Legend:
[1] = Stability in liver microsomes, human; settings: for AUC: human
[2] = Stability in liver microsomes, rat
[3] = Stability in liver microsomes, dog
[4] = Stability in cryopreserved hepatocytes, human; settings: for AUC: human
[5] = Stability in cryopreserved hepatocytes, rat; settings: for AUC: rat
[6] = Stability in cryopreserved hepatocytes, dog; settings: for AUC: dog
[7] = Stability in human subcutaneous skin homogenate; settings: for AUC: human
[8] = rat
[9] = dog

With `CCCCCC(CCC1C(O)CC2Cc3c(cccc3OCC(=O)O)CC21)OC(N)=O` (stereo not shown) [XLII] the “Trep Concentration 0 min” value [1] was 0.361 µM, the “Trep Concentration 10 min” value [1] was 0.297 µM and the “Trep Concentration 20 min” value [1] was 0.293 µM. For the same molecule, the “Trep Concentration 30 min” value [1] was 0.273 µM, the “Trep Concentration 60 min” value [1] was 0.219 µM and the AUC [1] was 16.45 µmol·min/L. For the same molecule, the “Trep Concentration 0 min” value [2] was 0.322 µM, the “Trep Concentration 10 min” value [2] was 0.296 µM and the “Trep Concentration 20 min” value [2] was 0.314 µM. The “Trep Concentration 30 min” value [2] was 0.308 µM, the “Trep Concentration 60 min” value [2] was 0.29 µM and the “Trep Concentration 0 min” value [3] was 0.335 µM. The “Trep Concentration 10 min” value [3] was 0.312 µM, the “Trep Concentration 20 min” value [3] was 0.311 µM and the “Trep Concentration 30 min” value [3] was 0.308 µM. The “Trep Concentration 60 min” value [3] was 0.323 µM, the “Trep Concentration (μM) 0 min” value [4] was 0.297 µM and the “Trep Concentration (μM) 15 min” value [4] was 0.274 µM. For the same molecule, the “Trep Concentration (μM) 30 min” value [4] was 0.298 µM, the “Trep Concentration (μM) 60 min” value [4] was 0.275 µM and the “Trep Concentration (μM) 120 min” value [4] was 0.217 µM. For the same molecule, the “AUC” value [4] was 31.93 µmol·min/L, the “Trep Concentration (μM) 0 min” value [5] was 0.33 µM and the “Trep Concentration (μM) 15 min” value [5] was 0.309 µM. For the same molecule, the “Trep Concentration (μM) 30 min” value [5] was 0.299 µM, the “Trep Concentration (μM) 60 min” value [5] was 0.307 µM and the “Trep Concentration (μM) 120 min” value [5] was 0.3 µM. For the same molecule, the “AUC” value [5] was 36.65 µmol·min/L, the “Trep Concentration (μM) 0 min” value [6] was 0.296 µM and the “Trep Concentration (μM) 15 min” value [6] was 0.242 µM. For the same molecule, the “Trep Concentration (μM) 30 min” value [6] was 0.197 µM, the “Trep Concentration (μM) 60 min” value [6] was 0.155 µM and the “Trep Concentration (μM) 120 min” value [6] was 0.137 µM. For the same molecule, the “AUC” value [6] was 21.37 µmol·min/L, the “Trep Concentration 0 min” value [7] was 0 µM and the “Trep Concentration 30 min” value [7] was 0 µM. For the same molecule, the “Trep Concentration 60 min” value [7] was 0 µM, the “Trep Concentration 120 min” value [7] was 0 µM and the AUC [7] was 0.00 µmol·min/L. For the same molecule, the AUC [8] was 18.22 µmol·min/L and the AUC [9] was 18.91 µmol·min/L.
With `CCCCCC(CCC1C(O)CC2Cc3c(cccc3OCC(=O)O)CC21)OC(=O)CO` (stereo not shown) [XLIV] the “Trep Concentration 0 min” value [1] was 0.624 µM, the “Trep Concentration 10 min” value [1] was 0.632 µM and the “Trep Concentration 20 min” value [1] was 0.549 µM. For the same molecule, the “Trep Concentration 30 min” value [1] was 0.52 µM, the “Trep Concentration 60 min” value [1] was 0.307 µM and the AUC [1] was 29.94 µmol·min/L. For the same molecule, the “Trep Concentration 0 min” value [2] was 0.0772 µM, the “Trep Concentration 10 min” value [2] was 0.114 µM and the “Trep Concentration 20 min” value [2] was 0.157 µM. The “Trep Concentration 30 min” value [2] was 0.197 µM, the “Trep Concentration 60 min” value [2] was 0.284 µM and the “Trep Concentration 0 min” value [3] was 0.913 µM. For the same molecule, the “Trep Concentration 10 min” value [3] was 0.884 µM, the “Trep Concentration 20 min” value [3] was 0.828 µM and the “Trep Concentration 30 min” value [3] was 0.894 µM. The “Trep Concentration 60 min” value [3] was 0.899 µM, the “Trep Concentration (μM) 0 min” value [4] was 0.0377 µM and the “Trep Concentration (μM) 15 min” value [4] was 0.406 µM. For the same molecule, the “Trep Concentration (μM) 30 min” value [4] was 0.534 µM, the “Trep Concentration (μM) 60 min” value [4] was 0.553 µM and the “Trep Concentration (μM) 120 min” value [4] was 0.506 µM. For the same molecule, the “AUC” value [4] was 58.45 µmol·min/L, the “Trep Concentration (μM) 0 min” value [5] was 0.0352 µM and the “Trep Concentration (μM) 15 min” value [5] was 0.186 µM. For the same molecule, the “Trep Concentration (μM) 30 min” value [5] was 0.307 µM, the “Trep Concentration (μM) 60 min” value [5] was 0.393 µM and the “Trep Concentration (μM) 120 min” value [5] was 0.514 µM. The “AUC” value [5] was 43.07 µmol·min/L, the “Trep Concentration (μM) 0 min” value [6] was 0.0501 µM and the “Trep Concentration (μM) 15 min” value [6] was 0.587 µM. For the same molecule, the “Trep Concentration (μM) 30 min” value [6] was 0.545 µM, the “Trep Concentration (μM) 60 min” value [6] was 0.475 µM and the “Trep Concentration (μM) 120 min” value [6] was 0.404 µM. The “AUC” value [6] was 54.94 µmol·min/L, the “Trep Concentration 0 min” value [7] was 0 µM and the “Trep Concentration 30 min” value [7] was 0.0277 µM. For the same molecule, the “Trep Concentration 60 min” value [7] was 0.0597 µM, the “Trep Concentration 120 min” value [7] was 0.106 µM and the AUC [7] was 6.70 µmol·min/L. For the same molecule, the AUC [8] was 11.30 µmol·min/L and the AUC [9] was 53.05 µmol·min/L.
With `CCCCCC(CCC1C(O)CC2Cc3c(cccc3OCC(=O)O)CC21)OC(=O)C(C)(C)C` (stereo not shown) [XLIX] the “Trep Concentration 0 min” value [1] was 0.137 µM, the “Trep Concentration 10 min” value [1] was 0.171 µM and the “Trep Concentration 20 min” value [1] was 0.174 µM. The “Trep Concentration 30 min” value [1] was 0.163 µM, the “Trep Concentration 60 min” value [1] was 0.125 µM and the AUC [1] was 9.27 µmol·min/L. The “Trep Concentration 0 min” value [2] was 0 µM, the “Trep Concentration 10 min” value [2] was 0.00512 µM and the “Trep Concentration 20 min” value [2] was 0.00637 µM. For the same molecule, the “Trep Concentration 30 min” value [2] was 0.009 µM, the “Trep Concentration 60 min” value [2] was 0.0074 µM and the “Trep Concentration 0 min” value [3] was 0.17 µM. For the same molecule, the “Trep Concentration 10 min” value [3] was 0.325 µM, the “Trep Concentration 20 min” value [3] was 0.433 µM and the “Trep Concentration 30 min” value [3] was 0.451 µM. The “Trep Concentration 60 min” value [3] was 0.558 µM, the “Trep Concentration (μM) 0 min” value [4] was 0 µM and the “Trep Concentration (μM) 15 min” value [4] was 0.192 µM. The “Trep Concentration (μM) 30 min” value [4] was 0.179 µM, the “Trep Concentration (μM) 60 min” value [4] was 0.217 µM and the “Trep Concentration (μM) 120 min” value [4] was 0.237 µM. The “AUC” value [4] was 23.78 µmol·min/L, the “Trep Concentration (μM) 0 min” value [5] was 0 µM and the “Trep Concentration (μM) 15 min” value [5] was 0.00943 µM. For the same molecule, the “Trep Concentration (μM) 30 min” value [5] was 0.0122 µM, the “Trep Concentration (μM) 60 min” value [5] was 0.0182 µM and the “Trep Concentration (μM) 120 min” value [5] was 0.0273 µM. The “AUC” value [5] was 2.05 µmol·min/L, the “Trep Concentration (μM) 0 min” value [6] was 0 µM and the “Trep Concentration (μM) 15 min” value [6] was 0.0727 µM. The “Trep Concentration (μM) 30 min” value [6] was 0.111 µM, the “Trep Concentration (μM) 60 min” value [6] was 0.19 µM and the “Trep Concentration (μM) 120 min” value [6] was 0.258 µM. For the same molecule, the “AUC” value [6] was 19.88 µmol·min/L, the “Trep Concentration 0 min” value [7] was 0 µM and the “Trep Concentration 30 min” value [7] was 0.0159 µM. For the same molecule, the “Trep Concentration 60 min” value [7] was 0.0303 µM, the “Trep Concentration 120 min” value [7] was 0.0592 µM and the AUC [7] was 3.62 µmol·min/L. The AUC [8] was 0.41 µmol·min/L and the AUC [9] was 25.82 µmol·min/L.
For `CCCCCC(CCC1C(O)CC2Cc3c(cccc3OCC(=O)O)CC21)OCC` (stereo not shown) [XLVII], the “Trep Concentration 0 min” value [1] was 0 µM, the “Trep Concentration 10 min” value [1] was 0.0448 µM and the “Trep Concentration 20 min” value [1] was 0.0686 µM. For the same molecule, the “Trep Concentration 30 min” value [1] was 0.0816 µM, the “Trep Concentration 60 min” value [1] was 0.124 µM and the AUC [1] was 4.63 µmol·min/L. The “Trep Concentration 0 min” value [2] was 0 µM, the “Trep Concentration 10 min” value [2] was 0.0292 µM and the “Trep Concentration 20 min” value [2] was 0.0421 µM. The “Trep Concentration 30 min” value [2] was 0.0553 µM, the “Trep Concentration 60 min” value [2] was 0.0719 µM and the “Trep Concentration 0 min” value [3] was 0 µM. For the same molecule, the “Trep Concentration 10 min” value [3] was 0.0118 µM, the “Trep Concentration 20 min” value [3] was 0.0187 µM and the “Trep Concentration 30 min” value [3] was 0.0285 µM. The “Trep Concentration 60 min” value [3] was 0.0499 µM, the “Trep Concentration (μM) 0 min” value [4] was 0 µM and the “Trep Concentration (μM) 15 min” value [4] was 0.0152 µM. The “Trep Concentration (μM) 30 min” value [4] was 0.0199 µM, the “Trep Concentration (μM) 60 min” value [4] was 0.0215 µM and the “Trep Concentration (μM) 120 min” value [4] was 0.0212 µM. The “AUC” value [4] was 2.28 µmol·min/L, the “Trep Concentration (μM) 0 min” value [5] was 0 µM and the “Trep Concentration (μM) 15 min” value [5] was 0.0168 µM. The “Trep Concentration (μM) 30 min” value [5] was 0.0209 µM, the “Trep Concentration (μM) 60 min” value [5] was 0.0231 µM and the “Trep Concentration (μM) 120 min” value [5] was 0.0216 µM. The “AUC” value [5] was 2.41 µmol·min/L, the “Trep Concentration (μM) 0 min” value [6] was 0 µM and the “Trep Concentration (μM) 15 min” value [6] was 0 µM. For the same molecule, the “Trep Concentration (μM) 30 min” value [6] was 0 µM, the “Trep Concentration (μM) 60 min” value [6] was 0.00355 µM and the “Trep Concentration (μM) 120 min” value [6] was 0.00371 µM. The “AUC” value [6] was 0.27 µmol·min/L, the “Trep Concentration 0 min” value [7] was 0 µM and the AUC [8] was 2.90 µmol·min/L. It also gave an AUC [9] of 1.62 µmol·min/L.
